Reference: ChEMBL document CHEMBL3243934, “Synthesis and antiinflammatory activity of cis-4,5,6,7,8,8a,9-hexahydro-alpha-methyl-5H-fluorene-2-acetic acid” (1977)

Assays:
Rattus norvegicus = experiment: Antiinflammatory activity in rat assessed as inhibition of carrageenan-induced paw edema at 150 mg/kg; type: functional
Oryctolagus cuniculus = experiment: Antiinflammatory activity in rabbit assessed as inhibition of edema at 200 ug per site by reversed passive arthus test; type: functional

| SMILES | inhibition in vivo at 150 mg/kg (Rattus norvegicus) [%] | inhibition (INH) (Oryctolagus cuniculus) [%] |
| --- | --- | --- |
| CC(C(=O)O)c1ccc2c(c1)C[C@H]1CCCC[C@@H]21 (stereo not given in full) | 63 | 55 |
| CC(C(=O)O)c1ccc2c(c1)Cc1ccccc1-2 (stereo not given) [CICLOPROFEN] | 66 | 36 |
| CC(C)Cc1ccc(C(C)C(=O)O)cc1 (stereo not given) [IBUPROFEN] | 56 | 54 |
| COc1ccc2c(c1)c(CC(=O)O)c(C)n2C(=O)c1ccc(Cl)cc1 [INDOMETHACIN] | – | 57 |
| COc1ccc2cc([C@H](C)C(=O)O)ccc2c1 [NAPROXEN] | – | 55 |
| CCCCC1C(=O)N(c2ccccc2)N(c2ccccc2)C1=O [PHENYLBUTAZONE] | 59 | 44 |
